From patent US20230024304A1, “A MULTICOMPONENT COMPOSITION COMPRISING A COLLAGEN, RESVERATROL AND ASTAXANTHIN AND THE USE THEREOF FOR THE TREATMENT OF TENDINOPATHIES” (KOLINPHARMA S.P.A., priority 2019, published 2023)

What was measured:
primary human tenocytes = experiment: MTT cytotoxicity test on healthy tenocytes (individual substances and their combination); type: cell-based; conditions: 24 hours
Protocol: The model is based on the use of primary human tenocytes, obtained through isolation from Achilles tendon, purchased from Zen-Bio (TEN-F), cultured and used according to the supplier's instructions. […] Preliminary cytotoxicity studies (i.e. MTT test (3-(4,5-dimethylthiazol-2-yl)-2,5-diphenyltetrazolium bromide) and the subsequent statistical analysis) were conducted on healthy tenocytes treated with the individual substances in order to identify the doses to be used for subsequent experiments, as well as the doses to be mixed to analyse synergism. Cells were seeded in 48 well multiwells, at a density of 6000 cells/well. After 48 ore, they were treated with different concentrations of vitamin C (from 0.88 μg/mL to 352 μg/mL), collagen peptides (from 100 μg/mL to 3000 μg/mL), astaxanthin (from 1 μg/mL to 1000 μg/mL) or resveratrol (from 0.1 μg/mL to 100 μg/mL) for 24 hours. The range of concentrations selected for each substance was determined based on the data reported in literature. The MTT test was conducted at the end of the treatment. […] The formazan deposits in the cells were then solubilised with isopropanol, obtaining a homogeneous solution whose absorbance can thus be measured at the spectrophotometer (absorbance at 510 nm). […]

NF-kB and PI-3K = conditions: human tenocytes; dose and time-dependent manner; cited from earlier work

Structure (SMILES) | effect on cell viability (MTT test) (primary human tenocytes; resveratrol 50 and 100 μg/ml) | IL-1β-induced activation of NF-kB and PI-3K (NF-kB and PI-3K) | toxicity / cell viability (MTT test) (primary human tenocytes; at the tested doses (collagen 100-3000 μg/mL, astaxanthin 1-1000 μg/mL), results not reported in detail)
Oc1ccc(/C=C/c2cc(O)cc(O)c2)cc1 [resveratrol, 5-[(E)-2-(4-hydroxyphenyl)ethenyl]benzene-1,3-diol] | negative effect on cell viability | capable of suppressing IL-1β-induced activation of NF-kB and PI-3K | –
CC1=C(/C=C/C(C)=C/C=C/C(C)=C/C=C/C=C(C)/C=C/C=C(C)/C=C/C2=C(C)C(=O)[C@@H](O)CC2(C)C)C(C)(C)C[C@H](O)C1=O [astaxanthin] | – | – | devoid of toxicity
